Entries after “also recorded” stand apart in the source; their conditions may differ.

Data set [1] has as its system cell surface CLIP on immune cells in the spleen. The data set is described as follows: Dose response of CD74 cleavage inhibitors on cell surface CLIP in the spleen after FPI. The following applies: for cell surface CLIP on immune cells in the spleen / optimal dose to reduce CLIP after FPI: administered 30 min after FPI, spleen at 1 day post-FPI. Format: in vivo. As for the experimental part:
FIGS. 5A-5C is a set of bar graphs showing a dose response curve of inhibitors of various specific mechanisms of cleavage of full-length CD74 into CLIP 24 hours after FPI.
In addition to inhibiting MIF-binding to CD74, we have reduced the level of CLIP by inhibiting the distinct mechanisms by which CD74 is cleaved. Drugs that inhibit CD74 cleavage have been administered 30 min after FPI and the levels of CLIPs in the spleen have been assessed at 1 day post-FPI. […] We also found, using the proteasomal inhibitor, Bortezomib (PS341), that this compound was most efficacious at reducing cell-surface CLIP on B cells at 0.1 mg·kg, i.p. (FIG. 5B). Finally, Cystatin S is an inhibitor of Cathepsin S, which cleaves CD74 in B cells, dendritic cells, and macrophages^11,12. […] The optimal dosage is 50 mg/kg (FIG. 5C). At concentrations greater than 50 mg/kg, the compound appeared to be toxic under the tested conditions.

For data set [2], the system named is FJC-labeled cells in the perilesion area. The data set is described as follows: Fluorojade C (FJC) histology of neurodegeneration in peri-injury cortex after FPI. In kind it is in vivo, mouse. The conditions noted are these: 10 mg/kg at 30 mins after FPI; 3 days after FPI. As for the experimental part:
FIG. 3A is a photomicrograph depicting FJC-staining in the peri-lesion area of a mouse treated with DMSO 30 mins after FPI. 3B is a comparative photomicrograph from a mouse treated with ISO1 at 30 mins after FPI. […] N=6 per group.
We assessed the effects of 10 mg/kg of ISO1 administered at 30 mins after FPI on neurodegeneration (FIG. 3), and the astrocytic response (FIG. 4), in peri-injury cortex, at 3 days after FPI.

The subject of data set [3] is CLIP+ B cells in the brain. The data set is described as follows: Brain flow cytometry for CLIP+ B cells after fluid percussion injury (FPI). In kind it is in vivo, mouse. As for the experimental part:
The contributions of full-length cell-surface CD74 and its proteolytic products (CLIPs) in the pathogenic mechanisms that follow TBI were assessed. First, we determined if full-length CD74 on B cells was altered after fluid percussion injury (FPI) in an FPI model of TBI. A mouse model of TBI was produced and splenoctyes from those mice were isolated following FPI. The model, referred to as the “fluid percussion injury model”, is referenced in Tobin et al Acta Neuropathologica Communications 2014. Splenocytes were stained with anti-CD19 for B cells and counterstained with anti-CD74.
In order to address the innate immune components of CD74, a series of experiments in which MIF-binding to CD74 was antagonized at 30 min after FPI were performed. MIF mRNA levels are elevated after TBI. This occurs as a part of the innate immune response, via MIF-binding to, and signaling through cell surface CD74^35. We utilized ISO1, a small molecule that inhibits MIF-binding to CD74, to determine whether inhibition of MIF-binding would alter FPI-induced, CLIP-related cellular (FIG. 2) and neuroanatomical outcomes (FIGS. 3 and 4). ISO1 was administered at 30 mins after FPI and performed brain flow cytometry to assess what percent of leukocytes are CLIP+ B cells. It should be noted that less than 0.001 B cells enter the brain in naïve mice so they are not included in the graph.
(A flow cytometer gives signals particle by particle.)

Data set [4] concerns GFAP+ astrocytes. The data set is described as follows: GFAP-labeling of the astrocytic response in perilesion cortex after FPI. Format: in vivo, mouse. The conditions noted are these: treatment at 30 mins after FPI (ISO1 10 mg/kg), 3 days after FPI.
The test system of data set [5] is CLIPs in MHCII. The conditions noted are these: treatment with Cystatin S; literature reference; cited from earlier work.

`CC(C)C[C@H](NC(=O)[C@H](Cc1ccccc1)NC(=O)c1cnccn1)B(O)O` [Bortezomib]: in data set [1] (i.p., 30 min after FPI, 24 hours after FPI), the “dose most efficacious at reducing cell-surface CLIP on B cells” value was determined as 0.1 mg·kg.

In the case of `C[C@H]1CCC/C=C/[C@@H]2C[C@H](O)C[C@H]2[C@H](O)/C=C/C(=O)O1` [Brefeldin A], in data set [1], the “cell surface CLIP on immune cells in the spleen” value was “reduces cell surface CLIP on immune cells in the spleen” and the “optimal dose to reduce CLIP after FPI” value came to 5 mg/kg.

`COC(=O)CC1CC(c2ccc(O)cc2)=NO1` (centres unmarked) [ISO1, 4,5-Dihydro-3-(4-hydroxyphenyl)-5-isoxazoleacetic acid methyl ester]: the “neurodegeneration (total number of FJC-labeled cells in the perilesion area)” value in data set [2] is reported as “no effect on neurodegeneration; also recorded: no effect on the total number of FJC-labeled cells”. In data set [3] (administered at 30 min after FPI, brain at 24 hrs after FPI), the “percent of CLIP+ B cells in the brain” value is “significantly reduced the percentage of CLIP+ B cells in the brain; also recorded: reduced the percent of B cells that express CLIP in the brain”. The “dose providing the most significantly robust decrease in the percent of CLIP+ B cells entering the brain” value in data set [3] (at 30 mins after FPI) was determined as 10 mg/kg. For the same molecule, the “astrocytic response (GFAP-labeling) in perilesion cortex” value in data set [4] is recorded as “significantly reduced the peak astrocyte response; also recorded: significantly reduced GFAP-labeling”.

B1: Cystatin S: inhibitor of Cathepsin S, which cleaves CD74 in B cells, dendritic cells, and macrophages (protein, UniProt P01036 21-141, looked up)
Cystatin-S: SSSKEENRIIPGGIYDADLNDEWVQRALHFAISEYNKATEDEYYRRPLQVLRAREQTFGGVNYFFDVEVGRTICTKSQPNLDTCAFHEQPELQKKQLCSFEIYEVPWEDRMSLVNSRCQEA
As for B1, in data set [5], the “level of CLIPs in MHCII” value is on record as “reduces the level of CLIPs in MHCII”. Besides, in data set [1] (FPI mice, under the tested conditions), the “concentrations at which the compound appeared to be toxic” value is listed as “greater than 50 mg/kg”. For the same molecule, in data set [1], the “cell surface CLIP on immune cells in the spleen” value is listed as “reduction in immune cell-surface CLIP; also recorded: reduced immune cell-surface CLIP” and the “optimal dose to reduce CLIP after FPI” value turned out to be 50 mg/kg.
